# Reference: article PMC7667534, “Calixarbutin: A Novel Calixarene-based Potential Water-soluble Anti-tyrosinase Agent with High Anti-melanoma Activity” (Iranian Journal of Pharmaceutical Research : IJPR, 2020)
# Legend:
# [1] = target: Mushroom tyrosinase; experiment: DOPA-chrome assay with L-DOPA ([…]), mushroom tyrosinase […] U/mL, absorbance at […] nm; reference inhibitor measured by the authors; assay type: biochemical; conditions: read-out: Anti-tyrosinase activity (IC50)
# [2] = target: Mushroom tyrosinase; experiment: DOPA-chrome assay with L-DOPA ([…]), mushroom tyrosinase […] U/mL, absorbance at […] nm; assay type: biochemical; conditions: read-out: Anti-tyrosinase activity (IC50)
Compound,IC50 [1] [µM],IC50 [2] [µM]
OC[C@H]1O[C@@H](Oc2ccc(O)cc2)[C@H](O)[C@@H](O)[C@@H]1O [Arbutin],168 ± 7,–
OC[C@H]1O[C@@H](Oc2c3cc(O)cc2Cc2cc(O)cc(c2O[C@@H]2O[C@H](CO)[C@@H](O)[C@H](O)[C@H]2O)Cc2cc(O)cc(c2O[C@@H]2O[C@H](CO)[C@@H](O)[C@H](O)[C@H]2O)Cc2cc(O)cc(c2O[C@@H]2O[C@H](CO)[C@@H](O)[C@H](O)[C@H]2O)C3)[C@H](O)[C@@H](O)[C@@H]1O [compound 4],–,26 ± 1
